# According to patent US9556256B2, “Inhibition of cancer metastasis” (The Board of Trustees of The University of Arkansas, priority 2006, dated 2017):
# “Also recorded” adds a separate entry of the source.
# Legend:
# MCPG = experiment: Real-time PCR gene expression in MCF-7 cells after 5azadC: MCPG; format: cell-based, human; settings: for Relative expression level of MCPG compared with no 5azadC: MCF-7 cells
# Experimental: (§1) Real-time PCR was conducted to quantify mRNAs of five genes in four different human breast cancer tumor lines. The assayed genes were Syndecan-1 (SDC-1), Neuropilin-1 (NRP-1), Syndecan-4 (SDC-4), MCSP, and estrogen receptor 1. The tumor lines were MCF7, MDA-MD-468 (MDA-468), MDA-MB-231 (MDA-231), and MDA-MET. MCF-7 and MDA-468 are less aggressive. MDA-231 is an aggressive cell line, and MDA-MET is a subline of MDA-231 that metastasizes to bone. The quantity of each mRNA was assayed in comparison to 18s RNA. NRP-1, SDC-4 and MCSP expression was higher in the two more aggressive cell lines than in either of the two less aggressive cell lines. […] MCF-7 and MDA-468 are epithelial-like, while both MDA-231 and MDA-MET cells are mesenchymal type. Thus, high expression of NRP-1, MCSP and SDC-4 may be related to an epithelial to mesenchymal transition, which is a phenotypic event associated with more metastasis and aggressive growth.
# (§2) In this experiment, gene expression levels were assayed by real-time PCR and comparison to 18S RNA levels. The dependence of gene expression on methylation levels was tested by treating tumor cells with varying levels of 5-aza-2′-deoxycytidine (5azadC), which is a demethylating agent (Table 6). Methylation of CpG islands is a well-known mechanism of gene control. Methylation decreases expression of genes whose promoters are methylated. The expression of NRP-1, CHST11, and MCPG each increased with increasing 5azadC concentration, which indicates they are under methylation control, with increased methylation repressing expression of the genes. Urokinase (uPA) was used as a positive control.
# CHST11 = experiment: Real-time PCR gene expression in MCF-7 cells after 5azadC: CHST11; format: cell-based, human; settings: for Relative expression level of CHST11 compared with no 5azadC: MCF-7 cells
# Experimental: as §1, §2
# Synd-4 = experiment: Real-time PCR gene expression in MCF-7 cells after 5azadC: Synd-4; format: cell-based, human; settings: for Relative expression level of Synd-4 compared with no 5azadC: MCF-7 cells
# Experimental: as §1, §2
# NRP-1 = experiment: Real-time PCR gene expression in MCF-7 cells after 5azadC: NRP-1; format: cell-based, human; settings: for Relative expression level of NRP-1 compared with no 5azadC: MCF-7 cells
# Experimental: as §1, §2
# uPA = experiment: Real-time PCR gene expression in MCF-7 cells after 5azadC: uPA; format: cell-based, human; settings: positive control gene
# Experimental: as §1, §2
# P-Selectin = P-Selectin (Mus musculus, UniProt Q01102); experiment: P-Selectin binding to 4T1 cells by flow cytometry; settings: for P-Selectin binding to 4T1 cells after treatment of the cells: cells pre-treated with the agent; for Inhibition of P-Selectin binding to 4T1 cells: P-Selectin pre-treated with chondroitin sulfate, various concentrations
# Experimental: Unless specified otherwise, flow cytometry was conducted as follows. Acquisition and analysis of data was performed on an EPICS®™ XL™.flow cytometer (Beckman Coulter, Inc., Fullerton, Calif.). Cells were passed to new flasks 24 hours before measuring lectin binding. The subconfluent monolayer of cells was detached with Cellstripper (Mediatech, Inc. Herndon, Va.) and washed with Dulbecco's phosphate buffered saline with Ca++ and Mg++ (Mediatech, Inc. Herndon, Va.). Cells were transferred to FACS buffer (Dulbecco's Phosphate Buffered Saline, 1% BSA and 0.1% Sodium Azide), counted and diluted to ˜1-2×10^6/ml. Monoclonal antibodies were added to a final concentration of 10 μg/ml. Cells were incubated on ice for 30 minutes, washed twice with FACS buffer, before the addition of FITC-conjugated streptavidin (2 μg/ml) for lectin analysis or FITC-conjugated goat anti-mouse immunoglobulin for monoclonal analysis. Cells were then washed and fixed with paraformaldehyde, before analysis by flow cytometry.
# Recombinant E- and P-Selectin/Fc (human IgG) were purchased from R&D systems, Minneapolis, Minn. These recombinant molecules and FITC-conjugated anti-human IgG were used for binding analyses in flow cytometry assays. Human and murine recombinant selectins were used for human and murine cells, respectively.
# Binding of recombinant P-Selectin to cells was examined after treatment with heparinase and chondroitinase ABC or in the presence of various concentrations of heparin and chondroitin sulfate A, B, C, and E (Seikagaku America, Falmouth, Mass.).
# 4T1 cells [1] = experiment: Spontaneous lung metastasis of 4T1 tumors in BALB/c mice after heparin, clonogenic assay; format: in vivo, mouse; settings: 100 units 30 minutes before tumor cell inoculation; 26 days after inoculation
# Experimental: BALB/c female mice (6-8 weeks old) were purchased from Harlan (Indianapolis, Ind.). Tumors were established as described earlier (9). Briefly, each mouse was inoculated subcutaneously in the abdominal mammary gland with 5×10^4 4 T1 cells. To establish a functional correlation between P-Selectin ligand expression of 4T1 cells and their metastatic ability in vivo, we injected mice with 100 units of heparin 30 minutes before tumor cell inoculation. Mice were sacrificed 26 days after tumor inoculation, lungs were harvested and metastatic cells were detected by clonogenic assay. […] All mice that were injected with PBS as control developed lung metastasis.
# 4T1 cells [2] = experiment: Binding of thrombin-treated Calcein-AM-labeled mouse platelets to 4T1 cells; format: cell-based; settings: 100 U/ml final concentration
# Experimental: To examine if heparin can block the interaction of mouse platelets with tumor cells, 4T1 cells were mixed with Calcein-AM-labeled mouse platelets in the presence of mouse thrombin with or without heparin. Mouse thrombin was added to stimulate relocation of P-Selectin to platelet surface and tumor cells were then analyzed by flow cytometry for Calcein-AM staining, indicating platelet attachment. […] Blood was collected into sodium citrate (0.38% w/v) from naive mice and platelets were isolated from plasma by centrifugation. Platelet were washed and labeled with 5 μM final Calcein-AM (Molecular Probes, Eugene, Oreg., USA) for 15 minutes at 37° C. Platelets were then washed and incubated with 1 U/ml thrombin (Haematologic Technologies Inc, Essex Junction, Vt.) at 37° C. for 10 minutes. Heparin (Baxter Healthcare Corp., Deerfield, Ill., 100 U/ml final concentration) was then added to the mixture of platelets and thrombin, and incubated with 4T1 cells in flow cytometry tubes, for 15 minutes at room temperature, then acquired and analyzed by flow cytometry.
# tumor cells = settings: clinically relevant dose; reference 8; cited from earlier work
# 4T1 cells [3] = experiment: Lung colonies in mice with 4T1 fat pad tumors injected daily with CS; format: in vivo, mouse; settings: 30 days after transplant
# Experimental: FIG. 20. Chondroitin sulfate inhibits metastasis. Mice were injected with 4T1 cells into fact pads. After tumors were palpable (3-4 days after transplant) they were daily injected with CS intraperitoneally (ip) or subcutaneously (sc). Micer were sacrificed 30 days after transplant and lung colonies were quantified. Saline injection was used as a control. Comparisons were made between groups treated with CS and the saline group as control. NS, not significant. Average and SD with three animals per group is shown.
# Mice were injected with 4T1 cells into fat pads. After tumors were palpable (3-4 days after transplant) the mice were daily injected with CS intraperitoneally (ip) or subcutaneously (sc). The mice were sacrificed 30 days after transplant and lung colonies were quantified. CS was dissolved in saline for injection. Saline control injection by either sc or ip routes produced similar results.
# Chain of P-Selectin (Q01102 with tags, fused parts or gaps limits assumed): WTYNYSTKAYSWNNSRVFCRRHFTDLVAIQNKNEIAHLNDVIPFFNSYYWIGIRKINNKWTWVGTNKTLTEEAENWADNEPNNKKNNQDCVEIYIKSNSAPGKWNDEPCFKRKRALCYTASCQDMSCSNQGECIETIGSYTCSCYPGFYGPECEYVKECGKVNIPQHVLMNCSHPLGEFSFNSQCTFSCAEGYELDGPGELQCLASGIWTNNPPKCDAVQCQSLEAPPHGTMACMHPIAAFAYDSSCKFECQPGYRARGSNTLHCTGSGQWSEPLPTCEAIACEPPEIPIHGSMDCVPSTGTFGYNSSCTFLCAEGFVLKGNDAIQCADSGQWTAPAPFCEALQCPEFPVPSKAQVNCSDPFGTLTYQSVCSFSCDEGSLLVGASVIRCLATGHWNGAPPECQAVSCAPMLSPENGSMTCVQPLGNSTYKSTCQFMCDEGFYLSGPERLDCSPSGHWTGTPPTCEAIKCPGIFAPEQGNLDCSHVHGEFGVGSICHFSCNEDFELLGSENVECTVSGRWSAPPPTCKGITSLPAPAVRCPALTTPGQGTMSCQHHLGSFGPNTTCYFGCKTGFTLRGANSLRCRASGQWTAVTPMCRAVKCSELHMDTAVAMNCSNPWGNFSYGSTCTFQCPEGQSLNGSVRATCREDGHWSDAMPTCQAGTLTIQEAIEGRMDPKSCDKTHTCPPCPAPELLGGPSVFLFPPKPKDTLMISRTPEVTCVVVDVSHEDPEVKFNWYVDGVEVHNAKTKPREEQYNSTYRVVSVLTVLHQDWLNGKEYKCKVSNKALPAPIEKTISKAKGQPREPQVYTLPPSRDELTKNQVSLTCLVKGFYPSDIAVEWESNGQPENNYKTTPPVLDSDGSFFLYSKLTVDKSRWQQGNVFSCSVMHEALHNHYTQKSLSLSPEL
molecule,measurement,setting,value
"Nc1ncn([C@H]2C[C@H](O)[C@@H](CO)O2)c(=O)n1 [5azadC, 5-aza-2′-deoxycytidine]",Relative expression level of MCPG compared with no 5azadC,MCPG; 0.5 μM,1.3
same,Relative expression level of MCPG compared with no 5azadC,MCPG; 1 μM,1.4
same,Relative expression level of MCPG compared with no 5azadC,MCPG; 5 μM,1.7
same,Relative expression level of MCPG compared with no 5azadC,MCPG; 20 μM,2.1
same,Expression of MCPG with increasing 5azadC concentration,MCPG; trend over 0.5-20 μM,increased
same,Relative expression level of CHST11 compared with no 5azadC,CHST11; 0.5 μM,1.34
same,Relative expression level of CHST11 compared with no 5azadC,CHST11; 1 μM,1.68
same,Relative expression level of CHST11 compared with no 5azadC,CHST11; 5 μM,3.7
same,Relative expression level of CHST11 compared with no 5azadC,CHST11; 20 μM,4.00
same,Expression of CHST11 with increasing 5azadC concentration,CHST11; trend over 0.5-20 μM,increased
same,Relative expression level of Synd-4 compared with no 5azadC,Synd-4; 0.5 μM,0.7
same,Relative expression level of Synd-4 compared with no 5azadC,Synd-4; 1 μM,0.5
same,Relative expression level of Synd-4 compared with no 5azadC,Synd-4; 5 μM,0.8
same,Relative expression level of Synd-4 compared with no 5azadC,Synd-4; 20 μM,0.6
same,Syndecan-4 expression with 5azadC treatment,Synd-4; trend over 0.5-20 μM,decreased or remained approximately constant
same,Relative expression level of NRP-1 compared with no 5azadC,NRP-1; 0.5 μM,1.04
same,Relative expression level of NRP-1 compared with no 5azadC,NRP-1; 1 μM,1.50
same,Relative expression level of NRP-1 compared with no 5azadC,NRP-1; 5 μM,1.72
same,Relative expression level of NRP-1 compared with no 5azadC,NRP-1; 20 μM,1.71
same,Expression of NRP-1 with increasing 5azadC concentration,NRP-1; trend over 0.5-20 μM,increased
same,Relative expression level of uPA compared with no 5azadC,uPA; 0.5 μM,2.2
same,Relative expression level of uPA compared with no 5azadC,uPA; 1 μM,2.9
same,Relative expression level of uPA compared with no 5azadC,uPA; 5 μM,3.2
same,Relative expression level of uPA compared with no 5azadC,uPA; 20 μM,3.9
O=C(O)CN(CCN(CC(=O)O)CC(=O)O)CC(=O)O [EDTA],P-Selectin reactivity with 4T1 cells in presence of EDTA,P-Selectin; high concentrations (20 and 40 mM),inhibited P-Selectin reactivity only at high concentrations
same,P-Selectin reactivity with 4T1 cells in presence of EDTA,P-Selectin; low concentration (10 mM),not blocked
[Na+].[O-][Cl+2]([O-])[O-] [sodium chlorate],P-Selectin binding to 4T1 cells after treatment of the cells,P-Selectin,elimination of P-Selectin binding in a majority of the cells
Heparin,Mice with complete absence of metastases in lung,4T1 cells [1],six mice out of total of seven
same,"Number of mice positive for established lung metastases, Positive (total)",4T1 cells [1],*1 (7)
same,Binding of thrombin treated platelets to tumor cells,4T1 cells [2],reduced
same,Lung metastasis in experimental models,tumor cells,inhibited lung metastasis
same,"Effective dose for inhibition of P-Selectin binding, as concentration",P-Selectin; corresponds to 120 units,0.7 mg/mL
same,Inhibition of P-Selectin binding to cells,"P-Selectin; sLex-Neg 4T1 cell variant, recombinant P-Selectin pre-incubated with 0.7-120 Units heparin",efficiently inhibited P-Selectin binding to cells in a dose dependent manner
same,Effective dose for inhibition of P-Selectin binding,"P-Selectin; sLex-Neg 4T1 cells, FIG. 10",120 units
"Neuraminidase: Neuraminidase (Vibrio cholerae) from Sigma, used at 50 mU/ml",P-Selectin binding to 4T1 cells after treatment of the cells,P-Selectin,did not change
chondroitin sulfate A [CS A],Inhibition of P-Selectin binding to 4T1 cells,P-Selectin,minimal inhibitory effects
chondroitin sulfate C [CS C],Inhibition of P-Selectin binding to 4T1 cells,P-Selectin,minimal inhibitory effects
chondroitin sulfate E [CS E],Concentration giving complete inhibition of P-Selectin binding,P-Selectin; 4T1 cells,0.5 mg/mL
same,Inhibition of P-Selectin binding to 4T1 cells,P-Selectin,inhibited P-Selectin binding; also recorded: effectively inhibit
chondroitin sulfate [CS],Metastasis (lung colonies) compared to saline control,4T1 cells [3]; 1 mg subcutaneously daily,decreased metastasis
same,Metastasis (lung colonies) compared to saline control,4T1 cells [3]; 10 mg subcutaneously daily,decreased metastasis
same,Metastasis (lung colonies) compared to saline control,4T1 cells [3]; intraperitoneally daily,did not appear to
dermatan sulfate [CS B],Concentration dependence of inhibition of P-Selectin binding,P-Selectin; 0.005-5.0 mg/ml,inhibitory effects only at higher concentrations
same,Inhibition of P-Selectin binding to 4T1 cells,P-Selectin,inhibited P-Selectin binding
